Source: ChEMBL document CHEMBL4007422 (J Med Chem, 2017)

Biological target: 5-hydroxytryptamine receptor 6 (Homo sapiens, UniProt P50406)
Assay: Displacement of [3H]-LSD from recombinant human 5-HT6 receptor expressed in HEK293 cells after 60 mins
Type: cell-based

Sequence of 5-hydroxytryptamine receptor 6 (P50406 whole entry): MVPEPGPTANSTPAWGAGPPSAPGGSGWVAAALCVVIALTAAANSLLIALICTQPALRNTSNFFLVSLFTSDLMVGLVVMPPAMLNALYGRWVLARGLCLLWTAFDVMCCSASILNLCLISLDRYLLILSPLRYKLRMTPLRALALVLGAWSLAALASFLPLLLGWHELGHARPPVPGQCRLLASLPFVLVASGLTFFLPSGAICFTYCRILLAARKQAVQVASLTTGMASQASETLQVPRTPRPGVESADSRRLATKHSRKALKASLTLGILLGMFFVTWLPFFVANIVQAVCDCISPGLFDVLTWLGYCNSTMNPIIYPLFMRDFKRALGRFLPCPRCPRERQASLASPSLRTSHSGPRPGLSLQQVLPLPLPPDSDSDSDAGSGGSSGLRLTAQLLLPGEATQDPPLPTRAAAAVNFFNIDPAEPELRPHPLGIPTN

With `CN1CCN(Cc2cn(S(=O)(=O)c3ccc(F)cc3F)c3ccccc23)CC1` the Ki was 30 nM.

Work on `CN1CCN(Cc2cn(S(=O)(=O)c3ccc(C#N)cc3)c3ccccc23)CC1` yielded a Ki of 90.5 nM.

With `CN1CCN(CCc2cn(S(=O)(=O)c3cccc(Br)c3)c3ccc(Br)cc23)CC1` the Ki was 289 nM.

With `CN1CCN(Cc2cn(S(=O)(=O)c3ccc(F)cc3)c3ccc(O)cc23)CC1` the Ki was 34.9 nM.

`CN1CCN(CCc2cn(S(=O)(=O)c3ccccc3Br)c3ccc(Br)cc23)CC1` was tested, and the Ki was 398 nM.

`O=S(=O)(c1ccccc1Br)n1cc(CN2CCNCC2)c2ccccc21` showed a Ki of 4.5 nM.

With `CN1CCN(Cc2cn(S(=O)(=O)c3ccccc3Br)c3ccc(O)cc23)CC1` the Ki was 18.7 nM.

`CN1CCN(Cc2cn(S(=O)(=O)c3ccc(F)cc3)c3cccc(Cl)c23)CC1` showed a Ki of 31.2 nM.

Work on `CN1CCN(Cc2cn(S(=O)(=O)c3cccc4ccccc34)c3ccccc23)CC1` yielded a Ki of 11.5 nM.

For `CN1CCN(Cc2cn(S(=O)(=O)c3ccccc3)c3ncccc23)CC1`, the Ki was 277 nM.

`CN1CCN(Cc2cn(S(=O)(=O)c3ccc(Cl)cc3Cl)c3ccccc23)CC1` was tested, and the Ki was 28.2 nM.

`COc1cccc2c1c(CN1CCN(C)CC1)cn2S(=O)(=O)c1ccc(F)cc1` was tested, and the Ki was 18.4 nM.

In the case of `CN1CCN(Cc2cn(S(=O)(=O)c3ccccc3Br)c3ccccc23)CC1`, the Ki is reported as 10.2 nM.

For `CN1CCN(Cc2cn(S(=O)(=O)c3ccc(OC(F)(F)F)cc3)c3ccccc23)CC1`, the Ki was 150 nM.

Work on `COc1ccc2c(c1)c(CN1CCNCC1)cn2S(=O)(=O)c1ccc(F)cc1` yielded a Ki of 6.9 nM.

`CN1CCN(Cc2cn(S(=O)(=O)c3c(Cl)cccc3Cl)c3ccccc23)CC1` was tested, and the Ki was 100 nM.

`CN1CCN(Cc2cn(Cc3ccccc3Br)c3ccccc23)CC1` showed a Ki of 312 nM.

`CN1CCN(Cc2cn(S(=O)(=O)c3ccc(F)c(F)c3)c3ccccc23)CC1` gave a Ki of 119 nM.

`COc1ccc2c(CN3CCN(C)CC3)cn(S(=O)(=O)c3ccc(C(C)C)cc3)c2c1` gave a Ki of 36.1 nM.

`COc1ccc2c(c1)c(CN1CCN(CCF)CC1)cn2S(=O)(=O)c1ccccc1Br` showed a Ki of 348 nM.

In the case of `O=S(=O)(c1ccccc1)n1cc(CN2CCNCC2)c2ccccc21`, the Ki is reported as 7.5 nM.

Work on `CN1CCN(Cc2cn(S(=O)(=O)c3ccccc3F)c3ccccc23)CC1` yielded a Ki of 7.8 nM.

Compound `O=S(=O)(c1ccccc1Br)n1cc(CN2CCNCC2)c2ncccc21` has a Ki of 95 nM.

`CC(=O)N1CCN(Cc2cn(S(=O)(=O)c3ccccc3Br)c3ccccc23)CC1` gave a Ki of 385 nM.

`CN1CCN(Cc2cn(S(=O)(=O)c3ccccc3)c3cc(Cl)ccc23)CC1` gave a Ki of 35.7 nM.

In the case of `COc1ccc2c(CN3CCN(C)CC3)cn(S(=O)(=O)c3ccc(F)cc3)c2c1`, the Ki is reported as 239 nM.

Compound `CN1CCN(Cc2cn(S(=O)(=O)c3ccccc3Br)c3ccc([N+](=O)[O-])cc23)CC1` has a Ki of 200 nM.

`CN1CCN(Cc2cn(S(=O)(=O)c3ccc(Br)cc3)c3ccccc23)CC1` showed a Ki of 2.13 nM.

For `CCN1CCN(Cc2cn(S(=O)(=O)c3ccc(F)cc3)c3ccc(OC)cc23)CC1`, the Ki was 20 nM.

Work on `CN1CCN(Cc2cn(S(=O)(=O)c3ccc(Br)cc3)c3cc(Cl)ccc23)CC1` yielded a Ki of 59.7 nM.

Compound `CC(C)c1ccc(S(=O)(=O)n2cc(CN3CCN(C)CC3)c3cc(O)ccc32)cc1` has a Ki of 50 nM.

`CN1CCN(Cc2cn(S(=O)(=O)c3ccc(F)cc3Cl)c3ccccc23)CC1` showed a Ki of 29 nM.

Compound `CN1CCN(Cc2cn(S(=O)(=O)c3cccc(Br)c3)c3ccccc23)CC1` has a Ki of 19 nM.

Compound `CN1CCN(Cc2cn(S(=O)(=O)c3ccc(Br)cc3)c3ccc(OCC(F)(F)F)cc23)CC1` has a Ki of 96.3 nM.

For `COc1ccc2c(c1)c(CN1CCN(C)CC1)nn2S(=O)(=O)c1ccccc1Br`, the Ki was 348 nM.

`CN1CCN(Cc2cn(S(=O)(=O)c3cccc(Cl)c3)c3ccccc23)CC1` gave a Ki of 16.3 nM.

Compound `Cc1ccc(S(=O)(=O)n2cc(CN3CCN(C)CC3)c3ccccc32)cc1` has a Ki of 9.6 nM.

With `CSc1ccc2c(c1)c(CN1CCN(C)CC1)cn2S(=O)(=O)c1ccccc1Br` the Ki was 194 nM.

With `O=C(c1ccccc1)N1CCN(Cc2cn(S(=O)(=O)c3ccccc3Br)c3ccccc23)CC1` the Ki was 365 nM.

For `CC(C)c1ccc(S(=O)(=O)n2cc(CN3CCN(C)CC3)c3cc(Br)ccc32)cc1`, the Ki was 27.6 nM.

With `Cc1ccc(C)c(S(=O)(=O)n2cc(CN3CCN(C)CC3)c3ccccc32)c1` the Ki was 64 nM.
